tested on: collagen 1 (COL1); assay: WI-38 collagen 1 inhibition assay; format: cell-based, human; settings: Cellular EC50, WI-38 cells; values are classes of LogEC50
Source text: All compounds were profiled for cellular potency in inhibition of collagen 1 (COL1) protein translation using a phenotypic screening platform.
WI-38 cells (ATCC® CCL-75™) were maintained in MEM EAGLE (NEAA) W. GLUTAMIN (Biological Industries, Cat. 06-1040-15-1A) containing 10% fetal bovine serum (FBS) and 1% Penicillin-Streptomycin Solution. To synchronize the cells (cell cycle synchronization) prior to induction of collagen synthesis, the cells were starved using DMEM-low glucose supplemented with 0.25% FBS for two hours and then without FBS for 24 hours. To induce collagen synthesis, the cells were treated with a collagen induction cocktail for the indicated time. Compounds were added with induction.
Cells in 96-well or 384-well plates were fixed for 20 min in 4% paraformaldehyde (PFA, ENCO, Cat. sc-281692). Following two washes with 1×PBS, cells were treated with hydrogen peroxide (Acros, Cat: 7722-84-1) for 10 minutes and then washed twice with 1×PBS. Cells were then incubated over-night at 4° C. with Anti-Collagen I (Sigma-Aldrich, Cat: C 2456) antibody and washed three times with 1×PBS. Cells were then incubated with a suitable secondary fluorescently-tagged antibody and nuclei stained with DAPI, for 1 hour, and then washed 3 times with 1×PBS.
Cell images were taken with Operetta (Perkin Elmer, USA), a wide-field fluorescence microscope at 20× magnification. After acquisition, the images were transferred to Columbus software (Perkin-Elmer) for image analysis. In Columbus, cells were identified by their nucleus, using the “Find Nuceli” module and cytoplasm was detected based on the secondary antibody channel. Subsequently, the fluorescent signal was enumerated in the identified cell region. Data was exported to a data analysis and visualization software, Tibco Spotfire, USA.

Row | SMILES | COL1 Efficacy (LogEC50)
1 | CN1CCC(C(=O)Nc2nc(-c3ccccc3Cl)cs2)CC1 [compound 324, N-[4-(2-chlorophenyl)thiazol-2-yl]-1-methyl-piperidine-4-carboxamide] | ++ (++: −5 to −6)
2 | Cc1ncc(C(=O)Nc2nc(-c3ccccc3Cl)cs2)cn1 [compound 320, N-[4-(2-chlorophenyl)thiazol-2-yl]-2-methyl-pyrimidine-5-carboxamide] | ++ (++: −5 to −6)
3 | O=C(Nc1nc(-c2ccccc2Cl)cs1)c1ccc(N2CCOCC2)cc1C(F)(F)F [Compound 411, N-(4-(2-chlorophenyl)thiazol-2-yl)-4-morpholino-2-(trifluoromethyl)benzamide] | +++ (+++: <−6)
4 | O=C(Nc1nc(-c2ccccc2Cl)cs1)c1ccc(C(=O)N2CCS(=O)(=O)CC2)cc1 [compound 385, N-(4-(2-chlorophenyl)thiazol-2-yl)-4-(1,1-dioxidothiomorpholine-4-carbonyl)benzamide] | ++ (++: −5 to −6)
5 | O=C(Nc1nc(-c2ccccc2Cl)cs1)c1ccc(N2CCC(CO)CC2)cn1 [compound 479, N-(4-(2-chlorophenyl)thiazol-2-yl)-5-(4-(hydroxymethyl)piperidin-1-yl)picolinamide] | +++ (+++: <−6)
6 | COc1ccc(C(=O)Nc2nc(-c3ccc(F)cc3Cl)cs2)cc1 [Compound 321, N-[4-(2-chloro-4-fluoro-phenyl)thiazol-2-yl]-4-methoxy-benzamide] | +++ (+++: <−6)
7 | COCc1cc(N2CCOCC2)ccc1C(=O)Nc1nc(-c2ccccc2Cl)cs1 [compound 436] | − (−: inactive)
8 | COc1ccc(C(=O)Nc2nc(-c3ccc(Cl)cc3Cl)cs2)cc1 [Compound 300, N-(4-(2,4-dichlorophenyl)thiazol-2-yl)-4-methoxybenzamide] | ++ (++: −5 to −6)
9 | COc1ccc(C(=O)Nc2nc(-c3ccccc3F)cs2)cc1 [Compound 336, N-[4-(2-fluorophenyl)thiazol-2-yl]-4-methoxy-benzamide] | ++ (++: −5 to −6)
10 | COc1ccc(C(=O)Nc2nc(-c3cccnc3)cs2)cc1 [Compound 316, 4-methoxy-N-[4-(3-pyridyl)thiazol-2-yl]benzamide] | ++ (++: −5 to −6)
11 | CN1CCC2(CCN(c3ccc(C(=O)Nc4nc(-c5ccccc5Cl)cs4)nc3)CC2)C1=O [compound 452, N-(4-(2-chlorophenyl)thiazol-2-yl)-5-(2-methyl-1-oxo-2,8-diazaspiro[4.5]decan-8-yl)picolinamide] | +++ (+++: <−6)
12 | CC(=O)N1CCN(c2ccc(C(=O)Nc3nc(-c4ccccc4Cl)cs3)nc2)CC1 [compound 442, 5-(4-acetylpiperazin-1-yl)-N-(4-(2-chlorophenyl)thiazol-2-yl)picolinamide] | +++ (+++: <−6)
13 | Cc1ccc(C(=O)Nc2nc(-c3ccc(Cl)cc3Cl)cs2)cc1 [Compound 307, N-(4-(2,4-dichlorophenyl)thiazol-2-yl)-4-methylbenzamide] | +++ (+++: <−6)
14 | COc1ccc(C(=O)Nc2nc(-c3cnccc3OC)cs2)cc1 [Compound 326, 4-methoxy-N-[4-(4-methoxy-3-pyridyl)thiazol-2-yl]benzamide] | ++ (++: −5 to −6)
15 | O=C(Nc1nc(-c2ccc(Cl)cc2Cl)cs1)C1CCOCC1 [Compound 306, N-(4-(2,4-dichlorophenyl)thiazol-2-yl)tetrahydro-2H-pyran-4-carboxamide] | ++ (++: −5 to −6)
16 | CN1CCN(c2ccc(C(=O)Nc3nc(-c4ccccc4Cl)cs3)cc2)CC1 [compound 322, N-[4-(2-chlorophenyl)thiazol-2-yl]-4-(4-methylpiperazin-1-yl)benzamide] | +++ (+++: <−6)
17 | O=C(Nc1nc(-c2ccccn2)cs1)c1ccc(N2CCOCC2)cc1 [Compound 370, 4-morpholino-N-[4-(2-pyridyl)thiazol-2-yl]benzamide] | + (+: >−5)
18 | Cc1ccc(C(=O)Nc2nc(-c3cc(Cl)sc3Cl)cs2)cc1 [compound 313] | +++ (+++: <−6)
19 | COc1ncc(C(=O)Nc2nc(-c3cnccc3C)cs2)cn1 [compound 349, 2-methoxy-N-[4-(4-methyl-3-pyridyl)thiazol-2-yl]pyrimidine-5-carboxamide] | − (−: inactive)
20 | CNCc1ccccc1-c1csc(NC(=O)c2ccc(N3CCN(S(C)(=O)=O)CC3)cn2)n1 [compound 457] | − (−: inactive)

Row | SMILES | COL1 Efficacy (LogEC50)
21 | Cc1ccc(C(=O)Nc2nc(-c3cnccc3C)cs2)cn1 [compound 348, 6-methyl-N-[4-(4-methyl-3-pyridyl)thiazol-2-yl]pyridine-3-carboxamide] | + (+: >−5)
22 | COc1ncc(C(=O)Nc2nc(-c3cccnc3OC)cs2)cn1 [compound 356, 2-methoxy-N-[4-(2-methoxy-3-pyridyl)thiazol-2-yl]pyrimidine-5-carboxamide] | − (−: inactive)
23 | COc1ccc(C(=O)Nc2nc(-c3ccc(F)cc3F)cs2)cc1 [Compound 325, N-[4-(2,4-difluorophenyl)thiazol-2-yl]-4-methoxy-benzamide] | +++ (+++: <−6)
24 | CS(=O)(=O)N1CCN(c2ccc(C(=O)Nc3nc(-c4ccccc4Cl)cs3)cc2)CC1 [compound 365, N-[4-(2-chlorophenyl)thiazol-2-yl]-4-(4-methylsulfonylpiperazin-1-yl)benzamide] | +++ (+++: <−6)
25 | CC(=O)N1CCN(c2csc(C(=O)Nc3nc(-c4ccccc4Cl)cs3)c2)CC1 [Compound 462, 4-(4-acetylpiperazin-1-yl)-N-(4-(2-chlorophenyl)thiazol-2-yl)thiophene-2-carboxamide] | ++ (++: −5 to −6)
26 | O=C(Nc1nc(-c2ccccc2Cl)cs1)c1cnc(N2CCOCC2)cn1 [compound 367, N-[4-(2-chlorophenyl)thiazol-2-yl]-5-morpholino-pyrazine-2-carboxamide] | +++ (+++: <−6)
27 | CC(=O)N1CC2(C1)CN(c1ccc(C(=O)Nc3nc(-c4ccccc4Cl)cs3)nc1)C2 [compound 449, 5-(6-acetyl-2,6-diazaspiro[3.3]heptan-2-yl)-N-(4-(2-chlorophenyl)thiazol-2-yl)picolinamide] | +++ (+++: <−6)
28 | CN(C)CC(=O)N1CCN(c2ccc(C(=O)Nc3nc(-c4ccccc4Cl)cs3)nc2)CC1 [Compound 443, N-(4-(2-chlorophenyl)thiazol-2-yl)-5-(4-(dimethylglycyl)piperazin-1-yl)picolinamide] | +++ (+++: <−6)
29 | Cc1ccc(C(=O)Nc2nc(-c3cccnc3C)cs2)cn1 [Compound 344, 6-methyl-N-[4-(2-methyl-3-pyridyl)thiazol-2-yl]pyridine-3-carboxamide] | +++ (+++: <−6)
30 | Cc1ccc(C(=O)Nc2nc(-c3cccc4c3OCCO4)cs2)cn1 [Compound 342, N-[4-(2,3-dihydro-1,4-benzodioxin-5-yl)thiazol-2-yl]-6-methyl-pyridine-3-carboxamide] | ++ (++: −5 to −6)
31 | COc1ccc(C(=O)Nc2nc(-c3cnccc3C)cs2)cc1 [Compound 333, 4-methoxy-N-[4-(4-methyl-3-pyridyl)thiazol-2-yl]benzamide] | ++ (++: −5 to −6)
32 | O=C(Nc1nc(-c2ccccc2Cl)c[nH]1)c1ccc(N2CCOCC2)cn1 [Compound 404, N-(4-(2-chlorophenyl)-1H-imidazol-2-yl)-5-morpholinopicolinamide] | +++ (+++: <−6)
33 | CN1CCC(Oc2ccc(C(=O)Nc3nc(-c4ccccc4Cl)cs3)nc2)CC1 [compound 439, N-(4-(2-chlorophenyl)thiazol-2-yl)-5-((1-methylpiperidin-4-yl)oxy)picolinamide] | +++ (+++: <−6)
34 | COCc1ccccc1-c1csc(NC(=O)c2ccc(N3CCC(O)CC3)cn2)n1 [Compound 468, 5-(4-hydroxypiperidin-1-yl)-N-(4-(2-(methoxymethyl)phenyl)thiazol-2-yl)picolinamide] | +++ (+++: <−6)
35 | COc1ccc(C(=O)Nc2nc(-c3cncnc3)cs2)cc1 [Compound 338, 4-methoxy-N-(4-pyrimidin-5-ylthiazol-2-yl)benzamide] | + (+: >−5)
36 | O=C(Nc1nc(-c2ccccc2Cl)cs1)c1ccc(Br)cc1 [compound 310] | +++ (+++: <−6)
37 | O=C(Nc1nc(C2CCOCC2)cs1)c1ccc(N2CCOCC2)cn1 [compound 393, 5-morpholino-N-(4-(tetrahydro-2H-pyran-4-yl)thiazol-2-yl)picolinamide] | ++ (++: −5 to −6)
38 | Cc1ncccc1-c1csc(NC(=O)c2ccc(N3CCOCC3)nc2)n1 [compound 375, N-[4-(2-methyl-3-pyridyl)thiazol-2-yl]-6-morpholino-pyridine-3-carboxamide] | + (+: >−5)
39 | Cc1ccc(C(=O)Nc2nc(-c3cccnc3)cs2)cn1 [Compound 323, 6-methyl-N-[4-(3-pyridyl)thiazol-2-yl]pyridine-3-carboxamide] | + (+: >−5)

— patent publication US20230212131A1, “COLLAGEN 1 TRANSLATION INHIBITORS AND METHODS OF USE THEREOF” (Anima Biotech Inc., priority 2020, published 2023)
